In US9770026B2, “Substituted pyrimidine compound and uses thereof” (Shenyang Sinochem Agrochemicals R&D Co., Ltd., priority 2012, dated 2017):

Columns and labels:
Diamond back moth = assay: insecticidal activity against diamond back moth, airbrush spray; format: in vivo
Procedure: Compounds were dissolved in mixed solvent (acetone:methanol=1:1), and diluted to required concentration with water containing 0.1% of tween 80.
Diamond back moth, armyworm, peach aphid and carmine spider mite were used as targets and the method of spraying by airbrush was used for determination of insecticidal biassays.
The method of spraying by airbrush: The cabbage leaves were made into plates of 2 cm diameter by use of punch. A test solution (0.5 ml) was sprayed by airbrush at the pressure of 0.7 kg/cm^2 to both sides of every plate. 10 Second instar larvae were put into the petri-dishes after the leaf disc air-dried and 3 replicates were set for each treatment. Then the insects were maintained in observation room (25° C., 60˜70% R.H.). Scores were conducted and mortalities were calculated after 72 hrs.

wheat powdery mildew = assay: protectant activity in vivo against wheat powdery mildew
[1] = system: Green peach aphids (Myzus Persicae Sulzer); assay: bioactivity test against green peach aphid, airbrush foliar spray; format: in vivo; details: for Insecticidal activity against peach aphid (%): contrastive test
How it was run: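 Death rate was scored at 48 hrs, held at 25±1 C and 60±5% RH, following airbrush foliar spray (0.5 mL, 10 psi) onto cabbage leaf discs bearing about 15-30 aphids. Test solutions: compound dissolved in 1:1 acetone:methanol, brought to concentration with 0.1% tween 80 water.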

armyworm = assay: bioactivity test against armyworm, airbrush spray; format: in vivo; details: for control (test results against armyworm): mortality after 72 h
corn rust = assay: protectant activity in vivo against corn rust
carmine spider mite = assay: bioactivity test against carmine spider mite, airbrush spray; format: in vivo
How it was run: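 Broadbean seedlings infested with adult mites were sprayed with compound (acetone/methanol stock diluted in 0.1% Tween 80 water) by airbrush at 0.7 kg/cm^2, 0.5 ml. Three replicates were run. Mortality was scored after 72 hrs.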

cucumber downy mildew = assay: protectant activity in vivo against cucumber downy mildew; details: for control effect against cucumber downy mildew (%): protectant activity
[2] = 600 ppm, mortality after 72 hrs
[3] = 10 ppm, death rate after 48 hrs
[4] = 100 ppm, death rate after 48 hrs
[5] = 600 ppm, death rate after 48 hrs
[6] = 100 ppm, mortality after 72 hrs

SMILES | control (test results against diamond back moth) (Diamond back moth; [2]) [%] | protectant activity against wheat powdery mildew in vivo (wheat powdery mildew; 400 ppm) [%] | control (test results against green peach aphid) [1, 3] [%] | control (test results against green peach aphid) [1, 4] [%] | control (test results against green peach aphid) [1, 5] [%] | control (test results against armyworm) (armyworm; 600 ppm) [%] | protectant activity against corn rust in vivo (corn rust; 400 ppm) [%] | Insecticidal activity against carmine spider mite (% ) (carmine spider mite; 2.5 mg/L) [%] | Insecticidal activity against carmine spider mite (% ) (carmine spider mite; 5 mg/L) [%] | Insecticidal activity against carmine spider mite (% ) (carmine spider mite; 10 mg/L, contrastive test) [%] | Insecticidal activity against carmine spider mite (% ) (carmine spider mite; 100 mg/L, contrastive test) [%] | Insecticidal activity against carmine spider mite (% ) (carmine spider mite; 600 mg/L, contrastive test) [%] | control against carmine spider mite (carmine spider mite; [6]) [%] | control against carmine spider mite (carmine spider mite; [2]) [%] | protectant activity against cucumber downy mildew in vivo (cucumber downy mildew; 25 ppm) [%] | protectant activity against cucumber downy mildew in vivo (cucumber downy mildew; 50 ppm) [%] | protectant activity against cucumber downy mildew in vivo (cucumber downy mildew; 100 ppm) [%] | protectant activity against cucumber downy mildew in vivo (cucumber downy mildew; 400 ppm) [%] | Insecticidal activity against armyworm (%) (armyworm; 10 mg/L) | Insecticidal activity against armyworm (%) (armyworm; 100 mg/L) | further results
Cc1ncnc(NCCc2ccc(Oc3ccc(C(F)(F)F)cn3)cc2)c1Cl [Compound I-6734] | 100 | 100 | 100 | 100 | 100 | 100 | 100 | 51 | 57 | 82 | 100 | 100 | 100 | 100 |  |  |  |  |  |  | pest or weed control at 10 µg/mL (Diamond back moth; 72 h, 10 mg/L): 40%; pest or weed control at 100 µg/mL (Diamond back moth; 72 h, 100 mg/L): 52%; pest or weed control at 600 µg/mL (Diamond back moth; 72 h, 600 mg/L): 100%; protectant activity against corn rust in vivo (corn rust; 100 ppm): 100%
CCc1ncnc(NCCc2ccc(Oc3ccc(C#N)cn3)cc2)c1Cl [Compound I-255] | 100 | 100 | 100 | 100 | 100 | 100 |  | 72 | 84 | 85 | 100 | 100 | 100 | 100 | 100 | 100 | 100 | 100 | 25 | 100 | Insecticidal activity against diamond back moth (%) (Diamond back moth; 10 mg/L): 43%; Insecticidal activity against diamond back moth (%) (Diamond back moth; 100 mg/L): 100%; Insecticidal activity against diamond back moth (%) (Diamond back moth; 600 mg/L): 100%; control (test results against diamond back moth) (Diamond back moth; [6]): 100%; protectant activity against wheat powdery mildew in vivo (wheat powdery mildew; 25 ppm): 100%; protectant activity against wheat powdery mildew in vivo (wheat powdery mildew; 100 ppm): 100%; Insecticidal activity against armyworm (%) (armyworm; 600 mg/L): 100%; control (test results against armyworm) (armyworm; 100 ppm): 100%
CCc1ncnc(NCCc2ccc(Oc3ccc(Cl)cc3)nc2)c1Cl [III-187] | 100 | 100 | 100 | 100 | 100 | 100 |  |  |  |  |  |  | 100 | 100 | 100 | 100 | 100 | 100 | 95 | 100 | control effect against cucumber downy mildew (%) (cucumber downy mildew; 6.25 mg/L): 100%; control effect against cucumber downy mildew (%) (cucumber downy mildew; 12.5 mg/L): 100%; control effect against cucumber downy mildew (%) (cucumber downy mildew; 25 mg/L): 100%; control effect against cucumber downy mildew (%) (cucumber downy mildew; 50 mg/L): 100%; control effect against cucumber downy mildew (%) (cucumber downy mildew; 100 mg/L): 100%; control effect against cucumber downy mildew (%) (cucumber downy mildew; 400 mg/L): 100%; protectant activity against cucumber downy mildew in vivo (cucumber downy mildew; 6.25 ppm): 100%; protectant activity against cucumber downy mildew in vivo (cucumber downy mildew; 12.5 ppm): 100%; Insecticidal activity against peach aphid (%) ([1]; 10 mg/L): 100%; Insecticidal activity against peach aphid (%) ([1]; 100 mg/L): 100%; Insecticidal activity against peach aphid (%) ([1]; 600 mg/L): 100%; Insecticidal activity against armyworm (%) (armyworm; 600 mg/L): 100%; control (test results against armyworm) (armyworm; 100 ppm): 100%
Cc1ncnc(NCCc2ccc(Oc3ccc(Cl)cc3)cc2)c1Cl [II-19] | 100 | 100 | 100 | 100 | 100 | 100 | 100 |  |  |  |  |  | 100 | 100 |  |  |  |  |  |  | Insecticidal activity against diamond back moth (%) (Diamond back moth; 10 mg/L): 50%; Insecticidal activity against diamond back moth (%) (Diamond back moth; 100 mg/L): 100%; Insecticidal activity against diamond back moth (%) (Diamond back moth; 600 mg/L): 100%; control (test results against diamond back moth) (Diamond back moth; [6]): 100%; Insecticidal activity against peach aphid (%) ([1]; 10 mg/L): 100%; Insecticidal activity against peach aphid (%) ([1]; 100 mg/L): 100%; Insecticidal activity against peach aphid (%) ([1]; 600 mg/L): 100%
Cc1ncnc(NCCc2ccc(Oc3cccc(C(F)(F)F)c3)nc2)c1Cl [III-21] | 100 | 100 |  |  | 100 | 100 | 100 |  |  |  |  |  |  | 100 |  |  |  |  |  |  | protectant activity against corn rust in vivo (corn rust; 100 ppm): 100%
Cc1ncnc(NCCc2ccc(Oc3ccc(C(F)(F)F)cn3)cc2)c1Cl [Compound I-6729] |  | 100 |  | 100 | 100 | 100 | 100 | 64 | 78 |  |  |  | 100 |  |  |  |  |  |  |  | pest or weed control at 600 ppm (Diamond back moth; 72 h, 600 ppm, mortality after 72 hrs, read-out: control (test results against diamond back moth)): 100%; pest or weed control at 100 ppm (wheat powdery mildew; Triticum aestivum, 168 h, read-out: protectant activity against wheat powdery mildew in vivo, 100 ppm): 100%; pest or weed control at 10 ppm ([1]; Myzus persicae, foliar, 48 h, 10 ppm, death rate after 48 hrs): 100%; protectant activity against corn rust in vivo (corn rust; 25 ppm): 100%; pest or weed control at 100 ppm (corn rust; Zea mays, 168 h, read-out: protectant activity against corn rust in vivo, 100 ppm): 100%; pest or weed control at 10 µg/mL (carmine spider mite; Tetranychus cinnabarinus, 72 h, 10 mg/L, contrastive test, read-out: Insecticidal activity against carmine spider mite (% )): 87%; pest or weed control at 100 µg/mL (carmine spider mite; Tetranychus cinnabarinus, 72 h, 100 mg/L, contrastive test, read-out: Insecticidal activity against carmine spider mite (% )): 100%; pest or weed control at 600 µg/mL (carmine spider mite; Tetranychus cinnabarinus, 72 h, 600 mg/L, contrastive test, read-out: Insecticidal activity against carmine spider mite (% )): 100%; pest or weed control at 600 ppm (carmine spider mite; Tetranychus cinnabarinus, 72 h, 600 ppm, mortality after 72 hrs): 100%
Cc1ncnc(NCCc2ccc(Oc3ccc(C(F)(F)F)cc3)nc2)c1Cl [III-22] | 100 | 100 | 100 | 100 | 100 | 100 |  |  |  | 72 | 100 | 100 | 100 | 100 | 100 | 100 | 100 | 100 | 71 | 100 | control effect against cucumber downy mildew (%) (cucumber downy mildew; 6.25 mg/L): 100%; control effect against cucumber downy mildew (%) (cucumber downy mildew; 12.5 mg/L): 100%; control effect against cucumber downy mildew (%) (cucumber downy mildew; 25 mg/L): 100%; control effect against cucumber downy mildew (%) (cucumber downy mildew; 50 mg/L): 100%; control effect against cucumber downy mildew (%) (cucumber downy mildew; 100 mg/L): 100%; control effect against cucumber downy mildew (%) (cucumber downy mildew; 400 mg/L): 100%; protectant activity against cucumber downy mildew in vivo (cucumber downy mildew; 6.25 ppm): 100%; protectant activity against cucumber downy mildew in vivo (cucumber downy mildew; 12.5 ppm): 100%; Insecticidal activity against peach aphid (%) ([1]; 1.25 mg/L): 67%; Insecticidal activity against peach aphid (%) ([1]; 2.5 mg/L): 98%; Insecticidal activity against peach aphid (%) ([1]; 5 mg/L): 100%; Insecticidal activity against peach aphid (%) ([1]; 10 mg/L): 100%; Insecticidal activity against peach aphid (%) ([1]; 100 mg/L): 100%; Insecticidal activity against peach aphid (%) ([1]; 600 mg/L): 100%; Insecticidal activity against armyworm (%) (armyworm; 600 mg/L): 100%; control (test results against armyworm) (armyworm; 100 ppm): 100%
